The results in this text go back to patent US9572813B2, “Antiviral agent” (SHIONOGI & CO., LTD., priority 2001, dated 2017).

Data set [1] deals with integrase (Human immunodeficiency virus type 1 group M subtype B, UniProt P04585). Nature of the data set: Integrase inhibition assay (microtiter plate strand transfer, substrate DNA/target DNA, anti-digoxigenin ELISA). Type of data set: biochemical. The settings on record: concentration of the compound at percent inhibition 50%; 30° C. for 1 hour; OD at 405 nm; read-out: IC50 (converted). How it is done: The inhibitory activities against integrase of the compounds in the present invention have been determined by the assay described below.
(1) Preparation of DNA Solutions.
Substrate DNA and target DNA, which sequences were indicated below, were synthesized by Amersham Pharmacia Biotech and dissolved in KTE buffer (composition: 100 mM KCl, 1 mM EDTA, 10 mM Tris-HCl (pH 7.6)) at concentration of 2 pmol/μl and 0.5 pmol/μl, respectively. The DNA solutions were annealed with each complement by slowly cooling after heating.
(2) Calculations of the Percent Inhibitions (the IC50 Values of Test Compounds)
Streptavidin, obtained from Vector Laboratories, was dissolved in 0.1 M carbonate buffer (composition: 90 mM Na2CO3, 10 mM NaHCO3) at concentration of 40 µg/ml. After coating each well of microtiter plates (obtained from NUNC) with 50 μL of the above solution at 4° C. over night, each well was washed twice with PBS (composition: 13.7 mM NaCl, 0.27 mM KCl, 0.43 mM Na2HPO4, 0.14 mM KH2PO4) and blocked with 300 μl of 1% skim milk in PBS for 30 min. Additionally, each well was washed twice with PBS and added 50 μl of substrate DNA solution (0.04 pmol/μl) diluted to one fiftieth with NTE buffer (composition: 1M NaCl, 10 mM Tris-HCl (pH8.0), 1 mM EDTA). The microtiter plates were kept at room temperature for 30 min. Then, each well was washed twice with PBS and once with H2O.
Subsequently, in the each well prepared above were added 45 μl of the reaction buffer prepared from 12 μl of the buffer (composition: 150 mM MOPS (pH 7.2), 75 mM MnCl2, 50 mM 2-mercaptoethanol, 25% glycerol, 500 μg/ml bovine serum albumin-fraction V), 1 μl of target DNA (5 pmol/μl), and 32 μl of the distilled water. Additionally, 6 μl of either a test compound in DMSO or DMSO for positive control (PC) was mixed with the above reaction buffer, then 9 μl of an integrase solution (30 pmol) was added and mixed well. In the well of negative control (NC) was added 9 μl of the integrase dilution buffer (composition: Hepes (pH7.6), 400 mM potassium glutamate, 1 mM EDTA, 0.1% NP-40, 20% glycerol, 1 mM DTT, 4M urea).
The microtiter plates were incubated at 30° C. for 1 hour. The reaction solution was removed and each well was washed twice with PBS. Subsequently, each well of the microtiter plates was filled with 100 μl of anti-digoxigenin antibody labeled with alkaline phosphatase (Sheep Fab fragment: obtained from Boehringer) and incubated at 30° C. for 1 hour. Then, each well was washed twice with 0.05% Tween20 in PBS and once with PBS. Next, 150 μl of the Alkaline phosphatase reaction buffer (composition: 10 mM p-Nitrophenylphosphate (obtained from Vector Laboratories), 5 mM MgCl2, 100 mM NaCl, 100 mM Tris-HCl (pH 9.5)) was added in each well. The microtiter plates were incubated at 30° C. for 2 hours. The optical density (OD) at 405 nm of each well was measured and the percent inhibition was determined by the following expression. The percent inhibition (%)=100[1−{(C abs.−NC abs.)/(PC abs.−NC abs.)}] • C abs.; the OD of the well of the • NC abs.: the OD of the negative control (NC) • PC abs.: the OD of the positive control (PC)
When the percent inhibition (%) is X % at the concentration of x μg/ml and the percent inhibition (%) is Y % at the concentration of y μg/ml, one of which is more than 50% and the other is less than 50%, IC50 can be determined by the following expression. IC50(μg/ml)=x−{(X−50),(x−y)/(X−Y)}
Compound No. in the Table 1 is the same as compound No. of the above example.
Background: In an ELISA, binding on a coated surface is turned into a signal by an enzyme label.

As usually defined, the IC50 is the concentration needed to halve the response being measured. The melting point is the temperature, or range, at which the solid turns liquid. Consider `Cc1[nH]cc(C(=O)c2ccc(Cc3ccc(F)cc3)o2)c(=O)c1O` [Compound M-6, 5-[5-(4-fluorobenzyl)furan-2-carbonyl]-3-hydroxy-2-methyl-1H-pyridine-4-one], for which the melting point was 190 to 192 °C. The IC50 in data set [1] was 8.86 µM.
